Measurements published in ChEMBL document CHEMBL5625279, “Synthesis and antiproliferative activity of a tetrahydrofuran analog of FR901464” (2024).

Experiments:
Type in all cases: functional
A549 = experiment: Antiproliferative activity against human A549 cells assessed as growth inhibition incubated for 3 days; details: A549, 72 h, time 3 day
LS174T = experiment: Antiproliferative activity against human LS174T cells assessed as growth inhibition incubated for 3 days; details: 72 h, time 3 day
HCT-116 = experiment: Antiproliferative activity against human HCT-116 cells assessed as growth inhibition incubated for 3 days; details: HCT-116, 72 h, time 3 day

SMILES | GI50 (A549) | GI50 (LS174T) | GI50 (HCT-116)
CC(=O)O[C@@H](C)/C=C\C(=O)N[C@@H]1C[C@H](C)[C@H](C/C=C(C)/C=C/[C@H]2OC(C)(C)C[C@@]3(CO3)[C@@H]2O)O[C@@H]1C | 0.0074 µM | 0.0057 µM | 0.0011 µM
COCO[C@@H](C)/C=C\C(=O)N[C@@H]1C[C@H](C)[C@H](C/C=C(C)/C=C/[C@H]2OC(C)(C)C[C@@]3(CO3)[C@@H]2O)O[C@@H]1C | 0.0039 µM | 0.0084 µM | 0.0031 µM
COCO[C@@H](C)/C=C\C(=O)N[C@@H]1C[C@H](C)[C@H](C/C=C(C)/C=C/[C@@H](O)[C@H]2OC(C)(C)C[C@@]23CO3)O[C@@H]1C | 8.7 µM | 5.5 µM | 3.4 µM
COc1cccc2c1C(=O)c1c(O)c3c(c(O)c1C2=O)C[C@@](O)(C(=O)CO)C[C@@H]3O[C@H]1C[C@H](N)[C@H](O)[C@H](C)O1 [DOXORUBICIN] | 0.608 µM | 0.248 µM | 0.077 µM
